Experiments:
blackgrass = assay: Test Example 5: herbicidal effect by foliage application, plastic box (Table 20, symbol J); format: in vivo, blackgrass (Alopecurus myosuroides); settings: foliage application; for herbicidal effect on J: blackgrass: 320 g/ha, evaluated three weeks after application
In short: (§1)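 Plants were sown into sterilized diluvial soil under about 1.5 cm cover and kept in a greenhouse at 25° C. to 30° C. Fourteen days on, foliage received an even spray of the diluted emulsion. Herbicidal or crop effect was judged three weeks afterwards.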

chickweed [1] = assay: Test Example 4: herbicidal effect by soil treatment (Table 19, symbol P); format: in vivo, common chickweed (Stellaria media); settings: for herbicidal effect rating, P: chickweed: 320 g/ha
In short: (§2)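 Pre-emergence style soil spray: seeds under ~1.5 cm sterilized diluvial soil received a uniform coat of emulsion diluted to the predetermined herbicide amount. Greenhouse 25–30° C; readout at week three on previously defined criteria.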

Chinese sprangletop = assay: Test Example 3: herbicidal effect by foliage application, Wagner pot (Table 18, symbol D); format: in vivo, chinese sprangletop (Leptochloa chinensis)
In short: (§3)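 Plants were sown in alluvial soil held under 0.1–0.5 cm standing water and grown 14 days in a greenhouse at 25–30 °C. An emulsifiable formulation, water-diluted to the set dose, was then sprayed onto the foliage, and effects were scored three weeks later using previously defined criteria.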

redroot pigweed = assay: Test Example 5: herbicidal effect by foliage application, plastic box (Table 20, symbol N); format: in vivo, redroot pigweed (Amaranthus retroflexus); settings: foliage application; for herbicidal effect on N: redroot pigweed: 320 g/ha, evaluated three weeks after application
In short: as §1

wild oat = assay: Test Example 5: herbicidal effect by foliage application, plastic box (Table 20, symbol I); format: in vivo, wild oat (Avena fatua); settings: foliage application; for herbicidal effect on I: wild oat: 320 g/ha, evaluated three weeks after application
In short: as §1

rice flat sedge = assay: Test Example 3: herbicidal effect by foliage application, Wagner pot (Table 18, symbol E); format: in vivo, rice flat sedge (Cyperus iria)
In short: as §3

southern crabgrass = assay: Test Example 5: herbicidal effect by foliage application, plastic box (Table 20, symbol F); format: in vivo, southern crabgrass (Digitaria ciliaris); settings: foliage application; for herbicidal effect on F: southern crabgrass: 320 g/ha, evaluated three weeks after application
In short: as §1

windgrass [2] = assay: Test Example 4: herbicidal effect by soil treatment (Table 19, symbol L); format: in vivo, windgrass (Apera spica-venti); settings: for herbicidal effect rating, L: windgrass: 320 g/ha
In short: as §2

barnyard grass [3] = assay: Test Example 3: herbicidal effect by foliage application, Wagner pot (Table 18, symbol H); format: in vivo, barnyard grass (Echinochloa crus-galli)
In short: as §3

velvetleaf = assay: Test Example 5: herbicidal effect by foliage application, plastic box (Table 20, symbol M); format: in vivo, velvetleaf (Abutilon theophrasti); settings: foliage application; for herbicidal effect on M: velvetleaf: 320 g/ha, evaluated three weeks after application
In short: as §1

windgrass [4] = assay: Test Example 5: herbicidal effect by foliage application, plastic box (Table 20, symbol L); format: in vivo, windgrass (Apera spica-venti); settings: foliage application; for herbicidal effect on L: windgrass: 320 g/ha, evaluated three weeks after application
In short: as §1

late watergrass = assay: Test Example 1: herbicidal activity, application before weed generation under submerged conditions (Table 16, symbol A); format: in vivo, late watergrass (Echinochloa oryzicola)
In short: (§4)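 Emulsion formulation, water-diluted to set dose, was put onto the flooded surface (4 cm depth, alluvial soil) the same day weeds were sown and 2.5-leaf rice transplanted. After 3 weeks at 25-30 °C under glass, each species was rated 0 (≤5% kill) to 5 (≥90% kill).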

barnyard grass [5] = assay: Test Example 5: herbicidal effect by foliage application, plastic box (Table 20, symbol H); format: in vivo, barnyard grass (Echinochloa crus-galli); settings: foliage application; for herbicidal effect on H: barnyard grass: 320 g/ha, evaluated three weeks after application
In short: as §1

lambsquarters = assay: Test Example 4: herbicidal effect by soil treatment (Table 19, symbol O); format: in vivo, lambsquarters (Chenopodium album); settings: for herbicidal effect rating, O: lambsquarters: 320 g/ha
In short: as §2

persian speedwell = assay: Test Example 4: herbicidal effect by soil treatment (Table 19, symbol R); format: in vivo, Persian speedwell (Veronica persica); settings: for herbicidal effect rating, R: persian speedwell: 320 g/ha
In short: as §2

oval-leafed pondweed = assay: Test Example 1: herbicidal activity, application before weed generation under submerged conditions (Table 16, symbol C); format: in vivo, oval-leafed pondweed (Monochoria vaginalis)
In short: as §4

chickweed [6] = assay: Test Example 5: herbicidal effect by foliage application, plastic box (Table 20, symbol P); format: in vivo, common chickweed (Stellaria media); settings: foliage application; for herbicidal effect on P: chickweed: 320 g/ha, evaluated three weeks after application
In short: as §1

Italian ryegrass = assay: Test Example 4: herbicidal effect by soil treatment (Table 19, symbol K); format: in vivo, Italian ryegrass (Lolium multiflorum); settings: for herbicidal effect rating, K: Italian ryegrass: 320 g/ha
In short: as §2

Japanese bulrush = assay: Test Example 1: herbicidal activity, application before weed generation under submerged conditions (Table 16, symbol B); format: in vivo, Japanese bulrush (Schoenoplectus juncoides)
In short: as §4

[7] = AAH 368 g/ha, three weeks after application

Row | Compound | herbicidal effect on J: blackgrass (blackgrass) | herbicidal effect rating, P: chickweed (chickweed [1]) | herbicidal effect on D (Chinese sprangletop), rating 0-5 (Chinese sprangletop; 320 g/ha) | herbicidal effect on N: redroot pigweed (redroot pigweed) | herbicidal effect on I: wild oat (wild oat) | herbicidal effect on E (rice flat sedge), rating 0-5 (rice flat sedge; 320 g/ha) | herbicidal effect on F: southern crabgrass (southern crabgrass) | herbicidal effect rating, L: windgrass (windgrass [2]) | herbicidal effect on H (barnyard grass), rating 0-5 (barnyard grass [3]; 320 g/ha) | herbicidal effect on M: velvetleaf (velvetleaf) | herbicidal effect on L: windgrass (windgrass [4]) | Herbicidal effect on A: late watergrass (grade 0-5) (late watergrass; 320 g/ha applied herbicide) | herbicidal effect on H: barnyard grass (barnyard grass [5]) | herbicidal effect rating, O: lambsquarters (lambsquarters) | herbicidal effect rating, R: persian speedwell (persian speedwell) | Herbicidal effect on C: oval-leafed pondweed (grade 0-5) (oval-leafed pondweed; 320 g/ha applied herbicide) | herbicidal effect on P: chickweed (chickweed [6]) | herbicidal effect rating, K: Italian ryegrass (Italian ryegrass) | Herbicidal effect on B: Japanese bulrush (grade 0-5) (Japanese bulrush; 320 g/ha applied herbicide) | other results
1 | COCCOc1ccc(-c2sc3ccccc3c2-c2c(O)c(C)nn(C)c2=O)cc1 [1-148] | – | – | – | – | – | – | – | – | – | – | – | – | – | – | – | – | – | – | – | J: blackgrass, herbicidal effect (blackgrass; [7]): 4 (Herbicidal rate of 70% or more and less than 90%); P: chickweed, herbicidal effect rating (chickweed [1]; AAH 368 g/ha): 5 (Herbicidal rate of 90% or more (almost completely withered)); herbicidal effect on D (Chinese sprangletop), rating 0-5 (Chinese sprangletop; 368 g/ha): 4 (Herbicidal rate of 70% or more and less than 90%); N: redroot pigweed, herbicidal effect (redroot pigweed; [7]): 5 (Herbicidal rate of 90% or more (almost completely withered)); I: wild oat, herbicidal effect (wild oat; [7]): 4 (Herbicidal rate of 70% or more and less than 90%); herbicidal effect on E (rice flat sedge), rating 0-5 (rice flat sedge; 368 g/ha): 5 (Herbicidal rate of 90% or more (almost completely withered)); F: southern crabgrass, herbicidal effect (southern crabgrass; [7]): 5 (Herbicidal rate of 90% or more (almost completely withered)); L: windgrass, herbicidal effect rating (windgrass [2]; AAH 368 g/ha): 0 (Herbicidal rate of 5% or less (almost no effect)); herbicidal effect on H (barnyard grass), rating 0-5 (barnyard grass [3]; 368 g/ha): 5 (Herbicidal rate of 90% or more (almost completely withered)); M: velvetleaf, herbicidal effect (velvetleaf; [7]): 5 (Herbicidal rate of 90% or more (almost completely withered)); L: windgrass, herbicidal effect (windgrass [4]; [7]): 4 (Herbicidal rate of 70% or more and less than 90%); Herbicidal effect on A: late watergrass (grade 0-5) (late watergrass; 368 g/ha applied herbicide): 3 (Herbicidal rate of 40% or more and less than 70%); H: barnyard grass, herbicidal effect (barnyard grass [5]; [7]): 5 (Herbicidal rate of 90% or more (almost completely withered)); O: lambsquarters, herbicidal effect rating (lambsquarters; AAH 368 g/ha): 5 (Herbicidal rate of 90% or more (almost completely withered)); R: persian speedwell, herbicidal effect rating (persian speedwell; AAH 368 g/ha): 5 (Herbicidal rate of 90% or more (almost completely withered)); Herbicidal effect on C: oval-leafed pondweed (grade 0-5) (oval-leafed pondweed; 368 g/ha applied herbicide): 3 (Herbicidal rate of 40% or more and less than 70%); P: chickweed, herbicidal effect (chickweed [6]; [7]): 5 (Herbicidal rate of 90% or more (almost completely withered)); K: Italian ryegrass, herbicidal effect rating (Italian ryegrass; AAH 368 g/ha): 5 (Herbicidal rate of 90% or more (almost completely withered)); Herbicidal effect on B: Japanese bulrush (grade 0-5) (Japanese bulrush; 368 g/ha applied herbicide): 3 (Herbicidal rate of 40% or more and less than 70%)
2 | Cc1nn(C)c(=O)c(-c2c(-c3ccc(OCC(F)(F)F)cc3)sc3ccc(F)cc23)c1O [2-049] | 5 (Herbicidal rate of 90% or more (almost completely withered)) | 5 (Herbicidal rate of 90% or more (almost completely withered)) | 5 (Herbicidal rate of 90% or more (almost completely withered)) | 5 (Herbicidal rate of 90% or more (almost completely withered)) | 5 (Herbicidal rate of 90% or more (almost completely withered)) | 5 (Herbicidal rate of 90% or more (almost completely withered)) | 5 (Herbicidal rate of 90% or more (almost completely withered)) | 5 (Herbicidal rate of 90% or more (almost completely withered)) | 5 (Herbicidal rate of 90% or more (almost completely withered)) | 5 (Herbicidal rate of 90% or more (almost completely withered)) | 5 (Herbicidal rate of 90% or more (almost completely withered)) | 2 (Herbicidal rate of 20% or more and less than 40%) | 5 (Herbicidal rate of 90% or more (almost completely withered)) | 5 (Herbicidal rate of 90% or more (almost completely withered)) | 4 (Herbicidal rate of 70% or more and less than 90%) | 3 (Herbicidal rate of 40% or more and less than 70%) | 5 (Herbicidal rate of 90% or more (almost completely withered)) | 4 (Herbicidal rate of 70% or more and less than 90%) | 3 (Herbicidal rate of 40% or more and less than 70%) | –
3 | C=CCOc1ccc(-c2sc3ccc(F)cc3c2-c2c(O)c(C)nn(C)c2=O)cc1 [2-051] | 5 (Herbicidal rate of 90% or more (almost completely withered)) | 1 (Herbicidal rate of 5% or more and less than 20%) | 5 (Herbicidal rate of 90% or more (almost completely withered)) | 5 (Herbicidal rate of 90% or more (almost completely withered)) | 4 (Herbicidal rate of 70% or more and less than 90%) | 5 (Herbicidal rate of 90% or more (almost completely withered)) | 5 (Herbicidal rate of 90% or more (almost completely withered)) | 3 (Herbicidal rate of 40% or more and less than 70%) | 5 (Herbicidal rate of 90% or more (almost completely withered)) | 4 (Herbicidal rate of 70% or more and less than 90%) | 5 (Herbicidal rate of 90% or more (almost completely withered)) | 3 (Herbicidal rate of 40% or more and less than 70%) | 5 (Herbicidal rate of 90% or more (almost completely withered)) | 5 (Herbicidal rate of 90% or more (almost completely withered)) | 4 (Herbicidal rate of 70% or more and less than 90%) | 4 (Herbicidal rate of 70% or more and less than 90%) | 5 (Herbicidal rate of 90% or more (almost completely withered)) | 0 (Herbicidal rate of 5% or less (almost no effect)) | 4 (Herbicidal rate of 70% or more and less than 90%) | –
